What was measured:
[1] = tested on: NSG mice injected with human PBMCs (GvHD); assay: Humanized GvHD mouse model, ex vivo pre-treated PBMCs plus in vivo treatment; parameters: GvHD clinical score: Body weight loss (D59) / GvHD clinical score: Paleness (D59) / GvHD clinical score: Posture (D59) / GvHD clinical score: Skin integrity (day 45) / GvHD clinical score: Activity score / GvHD clinical score: Fur texture (day 45): scale not given here; conditions: for GvHD clinical score: Body weight loss (D59): label = ex vivo PBMC treatment (7 hrs)/in vivo treatment (3 days), DMSO/Vehicle 2.0; for GvHD clinical score: Paleness (D59) / GvHD clinical score: Activity score / GvHD clinical score: Skin integrity (day 45) / GvHD clinical score: Posture (D59) / GvHD clinical score: Fur texture (day 45) / Cumulative GvHD score: label = ex vivo PBMC treatment/in vivo treatment; for GvHD clinical score: Paleness (D59): DMSO/Vehicle 0.9; for GvHD clinical score: Activity score: DMSO/Vehicle 1.0; for GvHD clinical score: Skin integrity (day 45): DMSO/Vehicle 1.25; for GvHD clinical score: Posture (D59): DMSO/Vehicle 1.3; for GvHD clinical score: Fur texture (day 45): DMSO/Vehicle 1.35; for Cumulative GvHD score: sum of individual scores, DMSO/Vehicle 7.8
Protocol: Humanized GvHD mouse model: 6-8 weeks old NSG mice were intraperitoneally injected with 10 million human peripheral blood mononuclear cells (PBMCs) as below:
A cumulative GvHD clinical score was calculated by addition of scores for individual parameters (e.g. cumulative score=BWL+posture+activity+fur texture+skin integrity+paleness).
Ex-vivo pre-treatment of PBMCs and in-vivo treatment of mice: Human PBMCs were ex-vivo treated with either DMSO or 6-(4-tert-butylphenoxy)pyridin-3-amine and then intraperitoneally injected into NSG mice. Mice were in vivo treated with different compounds as below: • i. DMSO ex vivo hPBMCs treatment (7 hrs), plus vehicle in vivo treatment • ii. DMSO ex vivo hPBMCs treatment (7 hrs), plus 6-(4-tert-butylphenoxy)pyridin-3-amine in vivo treatment for 3 days • iii. 6-(4-tert-butylphenoxy)pyridin-3-amine ex vivo hPBMCs treatment (7 hrs), plus 6-(4-tert-butylphenoxy)pyridin-3-amine in vivo treatment for 3 days • iv. DMSO ex vivo PBMCs treatment (7 hrs) plus Ruxolitinib in vivo treatment for 3 days • v. 6-(4-tert-butylphenoxy)pyridin-3-amine ex vivo hPBMCs treatment (7 hrs), plus Ruxolitinib in vivo treatment for 3 days
(§1) Following PBMC injections, mice were treated with vehicle or 6-(4-tert-butylphenoxy)pyridin-3-amine or Ruxolitinib starting at day 0. Mice were monitored from 60-85 days for symptoms of GvHD and scored according to a standard clinical scoring system for GvHD (Naserian et al., 2018) (see table 1) and a cumulative clinical score was obtained by addition of clinical score for individual parameters. A maximum score of 6 is measured when reaching endpoint. Cell proliferation assay: The effect of compounds on T cell proliferation was quantified using Cell trace violet (CTV). PBMCs/splenocytes were incubated with CTV for 20 minutes at 37° C. Cells were washed twice with RPMI complete medium. CTV labelled cells were stimulated with anti-CD3 and anti-CD28 antibodies and treated with control or compounds and cultured at 37° C. for 96 hours. The cell division index was measured by flow cytometry.

IL-6 = assay: ELISA of supernatant from activated human PBMC cultures: IL-6; type: cell-based; conditions: control 0%
Protocol: (§2) Human PBMCs and mouse splenocyte in vitro stimulation and treatment: Human peripheral blood mononuclear cells (PBMCs) and mouse splenocytes from donors were stimulated in vitro with anti-CD3 and anti-CD28 antibodies. The stimulated cells were simultaneously treated with compounds for 96 hours. The T cells were profiled for different cell surface and intracellular markers and proliferation by flow cytometry.
(§3) ELISA assay: Supernatant from activated human PBMC cultures described above was separated from cells at the end of culture time. Key cytokines (IL-6, IFN-γ, IL-17) were quantified using sandwich ELISA reagents set (Diaclone) following manufacturer's instruction manual.

Treg cells = assay: Treg expansion in activated human PBMC cultures (anti-CD3/anti-CD28, flow cytometry); type: cell-based; conditions: anti-CD3 and anti-CD28, 96 hours, control 0%
Protocol: as §2
(§4) Flow cytometry analysis: Flow cytometry analysis was performed to quantify cell surface and intracellular markers expression and measure cell division index.
Viability staining: Cells were transferred into a 96 well conical bottom plate and washed with serum free PBS1×. Cells were incubated with Zombie NIR (Biolegend #423105)+FC block ([…]) for 20 minutes at 4° C. Cells were washed with staining medium (SM) (1×HBSS, 2.5 mM EDTA, 2% NBS
Cell surface marker staining: Cells were stained with antibodies against cell surface markers (CD3, CD4, CD8, CD25, Biolegend or ThermoFisher) for 20 minutes at 4° C. Cells were washed with SM before continuing with nuclear staining.
FOXP3 nuclear staining: Cells were fixed and permeabilized with Foxp3 Transcription Factor Staining Buffer Set (ThermoFisher #00-5523) for 20 minutes at room temperature. […] Results are finally analysed with the software FlowJo v.10.7.1.

IL-17 = assay: ELISA of supernatant from activated human PBMC cultures: IL-17; type: cell-based; conditions: control 0%
Protocol: as §2, §3

activated CD4 T cells = assay: Cell proliferation assay (Cell trace violet), activated CD4 T cells; type: cell-based; conditions: control 0%
Protocol: as §1, §4

IFNG = assay: ELISA of supernatant from activated human PBMC cultures: IFNG; type: cell-based; conditions: control 0%
Protocol: as §2, §3

activated CD8 T cells = assay: Cell proliferation assay (Cell trace violet), activated CD8 T cells; type: cell-based; conditions: control 0%
Protocol: as §1, §4

[2] = tested on: irradiated Balb/c mice transplanted with TCD-BM + splenocytes from C57Bl6 mice (GvHD); assay: Allogeneic bone marrow transplant GvHD model; type: in vivo, mouse; conditions: allo-bone marrow transplant, compared with vehicle
Protocol: Allogeneic Bone marrow transplant: Recipient Balb/c mice were irradiated twice 3.75Gy (T=0 and T=4 h) in an X-ray source irradiator before transplantation at T=8 h. Treatment with antibiotics (Nopil) and analgesic (Dafalgan) was supplemented to drinking water 4 days before injection. Irradiated recipient Balb/c mice were transplanted with 5 million T cell depleted bone marrow+1 million splenocytes. Allogeneic recipient animals were treated with vehicle or 6-(4-tert-butylphenoxy)pyridin-3-amine subcutaneously at 20 mg/kg for two days immediately after allo-BM transplant, given a 10 days treatment holiday to recover body weight loss due to whole body irradiation and then treatment continued at 20 mg/kg. […] Animals were monitored for symptoms of GvHD development (severe body weight loss, alopecia and diarrhea.
Graft vs host disease (GvHD) is an example of alloimmune disease that develops following allo-hematopoetic stem cell transplant (allo-HSCT) in humans. The activity of 6-(4-tert-butylphenoxy)pyridin-3-amine and a calcineurin inhibitor Cyclosprin A was investigated in a mouse model of GvHD following allo-bone marrow transplant. In this model, T cell depleted bone marrow cells (TCD-BM)+splenocytes from C57Bl6 mice were transplanted into irradiated Balb/c mice.

| Compound | GvHD clinical score: Body weight loss (D59) [1] | GvHD clinical score: Paleness (D59) [1] | GvHD clinical score: Activity score [1] | GvHD clinical score: Skin integrity (day 45) [1] | GvHD clinical score: Posture (D59) [1] | GvHD clinical score: Fur texture (day 45) [1] | Cumulative GvHD score [1] | Percentage downregulation of IL-6 (IL-6) [%] | expansion of Treg cells (Treg cells) [%] | Percentage downregulation of IL-17 (IL-17) [%] | Percentage inhibition of CD4 T cells (proliferation) (activated CD4 T cells) [%] | Percentage downregulation of IFNG (IFNG) [%] | Percentage inhibition of CD8 T cells (proliferation) (activated CD8 T cells) [%] | prevention of GvHD development (in words) [2] |
| --- | --- | --- | --- | --- | --- | --- | --- | --- | --- | --- | --- | --- | --- | --- |
| CC(C)(C)c1ccc(Oc2ccc(N)cn2)cc1 [6-(4-tert-butylphenoxy)pyridin-3-amine/6-(4-tert-butylphenox] | 0.9 | 1.2 | 0.5 | 0.7 | 0.7 | 1.2 | 5.2 |  |  |  |  |  |  |  |
| Cc1nc(Oc2ccc(-c3ccc(F)cc3)cc2)ccc1N [6-((4′-fluoro-[1,1′-biphenyl]-4-yl)oxy)-2-methylpyridin-3-amine] |  |  |  |  |  |  |  | 66 | 120 | 78 | 40 | 41 | 74 |  |
| CC(C)(C)c1ccc(Oc2ccc(N)cn2)cc1 [DMSO/6-(4-tert-butylphenoxy)pyridin-3-amine] | 1.35 | 1.2 | 0.5 | 0.65 | 1.3 | 0.95 | 5.95 |  |  |  |  |  |  |  |
| N#CC[C@H](C1CCCC1)n1cc(-c2ncnc3[nH]ccc23)cn1 [DMSO/Ruxolitinib, Ruxolitinib, reference compound] | 1.6 | 0.9 | 0.9 | 1.2 | 1.2 | 1.1 | 6.9 |  |  |  |  |  |  |  |
| CNc1ccc(Oc2ccc(-c3cncs3)cc2)nc1 [N-methyl-6-(4-(thiazol-5-yl)phenoxy)pyridin-3-amine] |  |  |  |  |  |  |  | 80 |  | 85 |  | 38 |  |  |
| Cyclosporin A [reference compound] |  |  |  |  |  |  |  |  |  |  |  |  |  | did not perform better than vehicle treated animals |

Reference: patent US20240269120A1, “Method for Treating an Autoimmune and Inflammatory Disease” (Cellestia Biotech AG, priority 2021, published 2024)
